Reference: patent US20140213538A1, “LYSOPHOSPHATIDIC ACID RECEPTOR ANTAGONISTS” (InterMune, Inc., priority 2013, published 2014)
pEC50: −log10 of the molar value.

biological target: LPA1 (Homo sapiens, UniProt Q92633); assay: LPA1 Migration Assay (Oris); format: cell-based; set-up: host or cells: primary fibroblasts (lung, dermal), HFL-1, 3T3 and CHO cells expressing LPA1R; settings: read-out: Cell Migration EC50
Description: LPA1 Migration Assay Migration of primary fibroblasts (including lung, dermal), HFL-1, 3T3 and CHO cells expressing LPA1R were monitored using the Oris™ assay (Platypus Technologies, Madison, Wis.). These cells were dye (Cell Tracker Green™) loaded and serum starved for 12-24 hrs. In response to chemoattractants such as LPA and serum, the cells migrated inward in to the exclusion (detection) zone. After fixing, fluorescent cells in the detection zone were counted using a high content reader. The ability of LPA1 antagonists to inhibit cell migration is quantified by plotting cell number vs. compound concentration and curve fitting the resulting dose-response curve to a 4 parameter logistic function.

LPA1, sequence (Q92633 whole entry): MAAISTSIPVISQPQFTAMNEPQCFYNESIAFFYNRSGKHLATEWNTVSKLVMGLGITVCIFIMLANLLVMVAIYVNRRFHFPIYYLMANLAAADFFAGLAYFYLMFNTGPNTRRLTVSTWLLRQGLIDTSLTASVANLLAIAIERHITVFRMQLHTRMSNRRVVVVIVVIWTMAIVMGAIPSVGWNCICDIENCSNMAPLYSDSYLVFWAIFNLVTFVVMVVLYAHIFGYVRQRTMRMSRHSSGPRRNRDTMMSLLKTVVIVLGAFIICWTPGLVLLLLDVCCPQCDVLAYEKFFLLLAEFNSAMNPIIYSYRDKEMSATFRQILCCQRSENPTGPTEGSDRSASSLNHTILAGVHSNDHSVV

Compound	pEC50
C[C@@H](OC(=O)Nc1c(-c2cc(F)c(-c3ccc(C4(C(=O)O)CC4)cc3)cc2F)nn2ncccc12)c1ccccc1 [IT061]	6.30 to 7.30
C[C@@H](OC(=O)Nc1c(C#Cc2ccc3cc(C4(C(=O)O)CC4)ccc3c2)sc2ncccc12)c1ccccc1 [IT035]	6.30 to 7.30
Cc1noc(C#Cc2ccc3cc(CC4(C(=O)O)CC4)ccc3c2)c1NC(=O)O[C@H](C)c1ccccc1 [IT065]	< 6.30
Cc1noc(C#Cc2ccc3cc(C4(CC(=O)O)CC4)ccc3c2)c1NC(=O)O[C@H](C)c1ccccc1 [IT003]	6.30 to 7.30
Cc1nsc(-c2ccc(-c3cc4sc(C5(C(=O)O)CC5)cc4s3)cc2)c1NC(=O)O[C@H](C)c1ccccc1 [IT046]	6.30 to 7.30
Cc1nsc(-c2cc(F)c(-c3ccc(C4(C(=O)O)CCOCC4)cc3)cc2F)c1NC(=O)O[C@H](C)c1ccccc1 [IT042]	6.30 to 7.30
CC(C)OC(=O)C1(c2cc3sc(C#Cc4cnn(C)c4NC(=O)O[C@H](C)c4ccccc4)cc3s2)CC1 [IT086]	< 6.30
C[C@@H](OC(=O)Nc1c(C#Cc2cc3sc(C4(C(=O)O)CC4)cc3s2)oc2ccccc12)c1ccccc1 [IT074]	< 6.30
C[C@@H](OC(=O)Nc1c(-c2ccc(-c3ccc(C4(C(=O)O)CC4)cc3)cc2)nc2ncccn12)c1ccccc1 [IT043]	6.30 to 7.30
C[C@@H](OC(=O)Nc1c(-c2cc(F)c(-c3ccc(C4(C(=O)O)CCOCC4)cc3)cc2F)cnn1C)c1ccccc1 [IT044]	6.30 to 7.30
Cc1noc(-c2ccc(-c3ccc4c(c3)CCCC4C(=O)O)cc2)c1NC(=O)O[C@H](C)c1ccccc1 (mixture of isomers) [IT039]	< 6.30
C[C@@H](OC(=O)Nc1c(C#Cc2cc3sc(C4(C(=O)O)CC4)cc3s2)nnn1C)c1ccccc1 [IT069]	6.30 to 7.30
C[C@@H](OC(=O)Nc1c(-c2ccc(-c3cc4sc(C5(C(=O)O)CC5)cc4s3)cc2)nnn1C)c1ccccc1 [IT050]	6.30 to 7.30
CCOC(=O)C1(c2cc3sc(C#Cc4cnn(C)c4NC(=O)O[C@H](C)c4ccccc4)cc3s2)CC1 [IT085]	< 6.30

biological target: T1, LPA/S1P GPCR of interest (Homo sapiens, UniProt Q92633); assay: Beta-Arrestin based assay (PathHunter); format: cell-based; settings: not given
T1 construct: host or cells: CHO
T1 sequence (Q92633 whole entry): as above
Protocol: CMV promoter based DNA constructs expressing a fusion of the LPA/S1P GPCR of interest and ProLink™ tag were used to transfect EA Parental™ CHO cells (DiscoverX, Fremont, Calif.) using a FuGENE® transfection kit (Roche). Beta-Arrestin based assays were conducted 24-48 hrs post transfection using PathHunter® assay kits (DiscoverX, Fremont, Calif.). Agonist and antagonist assays were performed in quadruplicate in white 384 well plates. End point luminescence data were plotted and fit to a 4 parameter logistic function to obtain IC50 values. For antagonist assays, an IC80 concentration of agonist (LPA) equal to 0.5 micromolar was used.

Compound	pEC50
C[C@@H](OC(=O)Nc1[nH]ncc1C#Cc1cc2sc(C3(C(=O)O)CC3)cc2s1)c1ccccc1 [IT127]	< 6.30
Cc1cc(-c2cc3sc(-c4cnn(C)c4NC(=O)O[C@H](C)c4ccccc4)cc3s2)c(F)cc1C1(C(=O)O)CC1 [IT339]	6.30 to 7.30
C[C@@H](OC(=O)Nc1c(-c2cc3sc(-c4cc(F)c(CC(=O)O)cc4F)cc3s2)cnn1C)c1ccccc1 [IT327]	6.30 to 7.30
Cc1nsc(-c2cc3sc(-c4ccc(-c5nnc(C6(C(=O)O)CC6)o5)cc4)cc3s2)c1NC(=O)O[C@H](C)c1ccccc1 [IT216]	< 6.30
Cc1nsc(-c2cc3sc(-c4cc(F)c(CC(=O)O)cc4F)cc3s2)c1NC(=O)O[C@H](C)c1ccccc1 [IT326]	6.30 to 7.30
Cc1nsc(-c2cc3sc(-c4ccc(C5(C(=O)O)CC5)c(F)c4)cc3s2)c1NC(=O)O[C@H](C)c1ccccc1 [IT297]	> 7.30
Cc1nsc(-c2ccc(-c3nnc(C4(C(=O)O)CC4)s3)cc2)c1NC(=O)O[C@H](C)c1ccccc1 [IT200]	< 6.30
C[C@@H](OC(=O)Nc1c(-c2cc3sc(-c4ccc(CC(=O)O)cc4C(F)(F)F)cc3s2)nnn1C)c1ccccc1 [IT363]	< 6.30
Cc1nsc(-c2ccc(-c3ncc(C(=O)O)s3)cc2)c1NC(=O)O[C@H](C)c1ccccc1 [IT177]	< 6.30
C[C@@H](OC(=O)Nc1c(-c2cc3sc(-c4ccc(CC(=O)O)cc4C(F)(F)F)cc3s2)cnn1C)c1ccccc1 [IT362]	< 6.30
C[C@@H](OC(=O)Nc1c(-c2cc3sc(-c4ccc(C5(C(=O)O)CC5)c5ccccc45)cc3s2)nnn1C)c1ccccc1 [IT321]	6.30 to 7.30
C[C@@H](OC(=O)Nc1c(-c2cc(F)c(-c3cc(F)c(Oc4ncccc4C(=O)O)c(F)c3)cc2F)cnn1C)c1ccccc1 [IT473]	> 7.30
COc1cc(C2(C(=O)O)CC2)ccc1-c1cc2sc(-c3snc(C)c3NC(=O)O[C@H](C)c3ccccc3)cc2s1 [IT360]	< 6.30
C[C@@H](OC(=O)Nc1c(-c2cc3sc(-c4ccc5c(C6(C(=O)O)CC6)coc5c4)cc3s2)cnn1C)c1ccccc1 [IT395]	< 6.30
CC(C)[C@@H](NC(=O)C#Cc1ccc(-c2cnn(C)c2NC(=O)O[C@H](C)c2ccccc2)cc1)C(=O)O [IT403]	< 6.30
Cc1nsc(-c2ccc(-c3ccc(C4(C(=O)O)CC4)s3)cc2)c1NC(=O)O[C@H](C)c1ccccc1 [IT237]	6.30 to 7.30
Cc1noc(-c2ccc(-c3ccc(Oc4nnn(C)c4C(=O)O)cc3)cc2)c1NC(=O)O[C@H](C)c1ccccc1 [IT471]	6.30 to 7.30
C[C@@H](OC(=O)Nc1c(-c2cc3sc(-c4ccc(C5(C(=O)O)CC5)c(C(F)(F)F)c4)cc3s2)cnn1C)c1ccccc1 [IT379]	6.30 to 7.30
Cc1nsc(-c2cc3sc(-c4ccc5scc(CC(=O)O)c5c4)cc3s2)c1NC(=O)O[C@H](C)c1ccccc1 [IT354]	< 6.30
C[C@H](NC(=O)C#Cc1ccc(-c2cnn(C)c2NC(=O)O[C@H](C)c2ccccc2)cc1)C(=O)O [IT400]	< 6.30
Cc1noc(-c2ccc(-c3ccc(OCC(=O)O)cc3)cc2)c1NC(=O)O[C@H](C)c1ccccc1 [IT277]	6.30 to 7.30
C[C@@H](OC(=O)Nc1c(-c2ccc(-c3cc(F)c(Oc4cc(F)ccc4C(=O)O)c(F)c3)cc2)nnn1C)c1ccccc1 [IT514]	> 7.30
Cc1nsc(-c2cc3sc(-c4ccc(CC(=O)O)cc4C(F)(F)F)cc3s2)c1NC(=O)O[C@H](C)c1ccccc1 [IT337]	< 6.30
C[C@@H](OC(=O)Nc1c(-c2ccc(-c3ncc(C4(C(=O)O)CC4)s3)cc2)nnn1C)c1ccccc1 [IT239]	< 6.30
C[C@@H](OC(=O)Nc1c(-c2cc3sc(-c4ccc5c(CC(=O)O)coc5c4)cc3s2)nnn1C)c1ccccc1 [IT369]	6.30 to 7.30

Compound	pEC50
C[C@@H](OC(=O)Nc1c(-c2cc3sc(-c4ccc5occ(CC(=O)O)c5c4)cc3s2)nnn1C)c1ccccc1 [IT268]	6.30 to 7.30
COc1cc(C2(C(=O)O)CC2)c(F)cc1-c1cc2sc(-c3snc(C)c3NC(=O)O[C@H](C)c3ccccc3)cc2s1 [IT412]	< 6.30
C[C@@H](OC(=O)Nc1c(-c2ccc(-c3nnc(CC(=O)O)o3)cc2)nnn1C)c1ccccc1 [IT143]	< 6.30
COc1cc(CC(=O)O)c(F)cc1-c1cc2sc(-c3snc(C)c3NC(=O)O[C@H](C)c3ccccc3)cc2s1 [IT382]	< 6.30
C[C@@H](OC(=O)Nc1c(-c2cc3sc(-c4ccc(C5(C(=O)O)CC5)cc4OC(F)(F)F)cc3s2)nnn1C)c1ccccc1 [IT386]	6.30 to 7.30
C[C@@H](OC(=O)Nc1c(-c2ccc(C#CC(=O)NCCC(=O)O)cc2)cnn1C)c1ccccc1 [IT432]	< 6.30
COc1cc(C2(C(=O)O)CC2)c(OC)cc1-c1cc2sc(-c3snc(C)c3NC(=O)O[C@H](C)c3ccccc3)cc2s1 [IT413]	< 6.30
C[C@@H](OC(=O)Nc1c(-c2ccc(C#CC(=O)Nc3cccc(C(=O)O)c3)cc2)cnn1C)c1ccccc1 [IT429]	< 6.30
C[C@@H](OC(=O)Nc1c(-c2cc3sc(-c4ccc(CC(=O)O)c(S(C)(=O)=O)c4)cc3s2)nnn1C)c1ccccc1 [IT443]	< 6.30
C[C@@H](OC(=O)Nc1c(-c2cc3sc(-c4ccc(CC(=O)O)nc4)cc3s2)nnn1C)c1ccccc1 [IT215]	6.30 to 7.30
CC(C)[C@H](NC(=O)C#Cc1ccc(-c2cnn(C)c2NC(=O)O[C@H](C)c2ccccc2)cc1)C(=O)O [IT404]	< 6.30
Cc1nsc(-c2cc3sc(-c4ccc(C5(C(=O)O)CC5)c(S(C)(=O)=O)c4)cc3s2)c1NC(=O)O[C@H](C)c1ccccc1 [IT458]	< 6.30
C[C@@H](OC(=O)Nc1c(-c2cc3sc(-c4ccc5[nH]c(C6(C(=O)O)CC6)nc5c4)cc3s2)cnn1C)c1ccccc1 [IT427]	< 6.30
Cc1noc(-c2ccc(-c3ccc(Oc4c(C(=O)O)ncn4C)cc3)cc2)c1NC(=O)O[C@H](C)c1ccccc1 [IT444]	> 7.30
Cc1nsc(-c2cc3sc(-c4ccc(C5(C(=O)O)CC5)cc4OC(F)(F)F)cc3s2)c1NC(=O)O[C@H](C)c1ccccc1 [IT387]	6.30 to 7.30
Cc1nsc(-c2cc3sc(-c4ccc(CC(=O)O)c(F)c4F)cc3s2)c1NC(=O)O[C@H](C)c1ccccc1 [IT265]	6.30 to 7.30
C[C@@H](OC(=O)Nc1c(-c2cc3sc(-c4ccc5[nH]cc(CC(=O)O)c5c4)cc3s2)nnn1C)c1ccccc1 [IT298]	6.30 to 7.30
C[C@@H](NC(=O)Nc1c(C#Cc2cc3sc(C4(C(=O)O)CC4)cc3s2)cnn1C)c1ccccc1 [IT109]	> 7.30
C[C@@H](OC(=O)Nc1c(-c2cc3sc(-c4ccc(C5(C(=O)O)CC5)c(Cl)c4)cc3s2)cnn1C)c1ccccc1 [IT367]	> 7.30
C[C@@H](OC(=O)Nc1c(-c2cc3sc(-c4ccc(C5(C(=O)O)CC5)cc4C(F)(F)F)cc3s2)nnn1C)c1ccccc1 [IT299]	6.30 to 7.30
Cc1noc(-c2ccc(-c3ccc(Oc4cccc(C(=O)O)c4)cc3)cc2)c1NC(=O)O[C@H](C)c1ccccc1 [IT356]	6.30 to 7.30
Cc1nsc(-c2cc3sc(-c4cc(F)c(C5(C(=O)O)CC5)cc4F)cc3s2)c1NC(=O)O[C@H](C)c1ccccc1 [IT346]	> 7.30
C[C@@H](OC(=O)Nc1c(-c2cc3sc(-c4ccc(CC(=O)O)c(F)c4)cc3s2)nnn1C)c1ccccc1 [IT293]	6.30 to 7.30
Cc1cc(CC(=O)O)c(F)cc1-c1cc2sc(-c3cnn(C)c3NC(=O)O[C@H](C)c3ccccc3)cc2s1 [IT251]	6.30 to 7.30
